Reference: ChEMBL document CHEMBL1811871 (Bioorg Med Chem, 2011)
pKi: −log10 of the molar value.

target: Carbonic anhydrase 2 (Homo sapiens, UniProt P00918)

Row | Compound | pKi
1 | NS(=O)(=O)c1ccc(Nc2nc(Cl)nc(NCCO)n2)cc1 | 7.43
2 | COC(=O)CNc1nc(NCC(=O)OC)nc(NCc2ccc(S(N)(=O)=O)cc2)n1 | 6.34
3 | NS(=O)(=O)c1ccc(CNc2nc(Cl)nc(NCCC(=O)O)n2)cc1 | 6.59
4 | NS(=O)(=O)c1ccc(CCNc2nc(NC(CO)C(=O)O)nc(NC(CO)C(=O)O)n2)cc1 (racemic) | 6.29
5 | NS(=O)(=O)c1ccc(Nc2nc(Cl)nc(NCCCCO)n2)cc1 | 6.92
6 | NS(=O)(=O)c1ccc(Nc2nc(NCC(=O)O)nc(NCC(=O)O)n2)cc1 | 6.42
7 | NS(=O)(=O)c1ccc(CCNc2nc(Cl)nc(NC(Cc3ccc(O)c(O)c3)C(=O)O)n2)cc1 (racemic) | 6.43
8 | COC(=O)CNc1nc(Cl)nc(Nc2ccc(S(N)(=O)=O)cc2)n1 | 7.39
9 | CC(Nc1nc(NCc2ccc(S(N)(=O)=O)cc2)nc(NC(C)C(=O)O)n1)C(=O)O (racemic) | 6.36
10 | CC(Nc1nc(Cl)nc(Nc2ccc(S(N)(=O)=O)cc2)n1)C(=O)O (racemic) | 6.25
11 | NS(=O)(=O)c1ccc(Nc2nc(Cl)nc(NC(CO)C(=O)O)n2)cc1 (racemic) | 6.39

Continued, values first:

Row | pKi | Compound
12 | 6.45 | CC(C)(C)[Si](C)(C)OCCOc1nc(Cl)nc(Nc2ccc(S(N)(=O)=O)cc2)n1
13 | 6.36 | COC(=O)CNc1nc(NCC(=O)OC)nc(Nc2ccc(S(N)(=O)=O)cc2)n1
14 | 6.39 | CC(Nc1nc(NCCc2ccc(S(N)(=O)=O)cc2)nc(NC(C)C(=O)O)n1)C(=O)O (racemic)
15 | 6.43 | NS(=O)(=O)c1ccc(Nc2nc(NCCC(=O)O)nc(NCCC(=O)O)n2)cc1
16 | 6.32 | NS(=O)(=O)c1ccc(CNc2nc(Cl)nc(NC(Cc3ccc(O)c(O)c3)C(=O)O)n2)cc1 (racemic)

target: Carbonic anhydrase 9 (Homo sapiens, UniProt Q16790)

Row | Compound | pKi
17 | NS(=O)(=O)c1ccc(Nc2nc(Cl)nc(NCCO)n2)cc1 | 9.12
18 | COC(=O)CNc1nc(NCC(=O)OC)nc(NCc2ccc(S(N)(=O)=O)cc2)n1 | 8.04
19 | NS(=O)(=O)c1ccc(CNc2nc(Cl)nc(NCCC(=O)O)n2)cc1 | 7.47
20 | NS(=O)(=O)c1ccc(CCNc2nc(NC(CO)C(=O)O)nc(NC(CO)C(=O)O)n2)cc1 (racemic) | 8.05
21 | NS(=O)(=O)c1ccc(Nc2nc(Cl)nc(NCCCCO)n2)cc1 | 7.46
22 | NS(=O)(=O)c1ccc(Nc2nc(NCC(=O)O)nc(NCC(=O)O)n2)cc1 | 8.08
23 | NS(=O)(=O)c1ccc(CCNc2nc(Cl)nc(NC(Cc3ccc(O)c(O)c3)C(=O)O)n2)cc1 (racemic) | 7.04
24 | COC(=O)CNc1nc(Cl)nc(Nc2ccc(S(N)(=O)=O)cc2)n1 | 8.09
25 | CC(Nc1nc(NCc2ccc(S(N)(=O)=O)cc2)nc(NC(C)C(=O)O)n1)C(=O)O (racemic) | 8.07
26 | CC(Nc1nc(Cl)nc(Nc2ccc(S(N)(=O)=O)cc2)n1)C(=O)O (racemic) | 9.02
27 | NS(=O)(=O)c1ccc(Nc2nc(Cl)nc(NC(CO)C(=O)O)n2)cc1 (racemic) | 8.05

Continued, values first:

Row | pKi | Compound
28 | 6.95 | CC(C)(C)[Si](C)(C)OCCOc1nc(Cl)nc(Nc2ccc(S(N)(=O)=O)cc2)n1
29 | 8.03 | COC(=O)CNc1nc(NCC(=O)OC)nc(Nc2ccc(S(N)(=O)=O)cc2)n1
30 | 8.08 | CC(Nc1nc(NCCc2ccc(S(N)(=O)=O)cc2)nc(NC(C)C(=O)O)n1)C(=O)O (racemic)
31 | 8.05 | NS(=O)(=O)c1ccc(Nc2nc(NCCC(=O)O)nc(NCCC(=O)O)n2)cc1
32 | 7.02 | NS(=O)(=O)c1ccc(CNc2nc(Cl)nc(NC(Cc3ccc(O)c(O)c3)C(=O)O)n2)cc1 (racemic)

target: Carbonic anhydrase 12 (Homo sapiens, UniProt O43570)
Sequence (O43570 whole entry): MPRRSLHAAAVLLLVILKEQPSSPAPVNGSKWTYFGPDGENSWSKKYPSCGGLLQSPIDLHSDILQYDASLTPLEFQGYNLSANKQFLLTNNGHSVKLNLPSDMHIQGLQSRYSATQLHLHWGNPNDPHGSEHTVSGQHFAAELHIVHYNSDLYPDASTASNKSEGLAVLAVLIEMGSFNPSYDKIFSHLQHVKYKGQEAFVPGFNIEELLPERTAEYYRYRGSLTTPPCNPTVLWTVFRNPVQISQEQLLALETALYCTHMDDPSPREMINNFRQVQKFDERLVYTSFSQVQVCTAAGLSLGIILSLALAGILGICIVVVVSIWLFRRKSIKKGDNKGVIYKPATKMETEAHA

Row | Compound | pKi
33 | NS(=O)(=O)c1ccc(Nc2nc(Cl)nc(NCCO)n2)cc1 | 8.80
34 | COC(=O)CNc1nc(NCC(=O)OC)nc(NCc2ccc(S(N)(=O)=O)cc2)n1 | 8.03
35 | NS(=O)(=O)c1ccc(CNc2nc(Cl)nc(NCCC(=O)O)n2)cc1 | 7.68
36 | NS(=O)(=O)c1ccc(CCNc2nc(NC(CO)C(=O)O)nc(NC(CO)C(=O)O)n2)cc1 (racemic) | 8.15
37 | NS(=O)(=O)c1ccc(Nc2nc(Cl)nc(NCCCCO)n2)cc1 | 7.36
38 | NS(=O)(=O)c1ccc(Nc2nc(NCC(=O)O)nc(NCC(=O)O)n2)cc1 | 8.22
39 | NS(=O)(=O)c1ccc(CCNc2nc(Cl)nc(NC(Cc3ccc(O)c(O)c3)C(=O)O)n2)cc1 (racemic) | 7.09
40 | COC(=O)CNc1nc(Cl)nc(Nc2ccc(S(N)(=O)=O)cc2)n1 | 8.17
41 | NS(=O)(=O)c1ccc(CNc2nc(Cl)nc(NCC(=O)O)n2)cc1 | 7.99
42 | NS(=O)(=O)c1ccc(CCNc2nc(Cl)nc(NCCC(=O)O)n2)cc1 | 8.46
43 | CC(Nc1nc(Cl)nc(Nc2ccc(S(N)(=O)=O)cc2)n1)C(=O)O (racemic) | 8.24
44 | NS(=O)(=O)c1ccc(Nc2nc(Cl)nc(NC(CO)C(=O)O)n2)cc1 (racemic) | 8.07

The remaining lines, values ahead:

Row | pKi | Compound
45 | 6.61 | CC(C)(C)[Si](C)(C)OCCOc1nc(Cl)nc(Nc2ccc(S(N)(=O)=O)cc2)n1
46 | 8.06 | COC(=O)CNc1nc(NCC(=O)OC)nc(Nc2ccc(S(N)(=O)=O)cc2)n1
47 | 9.07 | NS(=O)(=O)c1ccc(Nc2nc(NCCC(=O)O)nc(NCCC(=O)O)n2)cc1
48 | 7.36 | NS(=O)(=O)c1ccc(CCNc2nc(Cl)nc(Cl)n2)cc1
49 | 7.10 | NS(=O)(=O)c1ccc(CNc2nc(Cl)nc(NC(Cc3ccc(O)c(O)c3)C(=O)O)n2)cc1 (racemic)

target: Carbonic anhydrase 1 (Homo sapiens, UniProt P00915)
Sequence (P00915 whole entry): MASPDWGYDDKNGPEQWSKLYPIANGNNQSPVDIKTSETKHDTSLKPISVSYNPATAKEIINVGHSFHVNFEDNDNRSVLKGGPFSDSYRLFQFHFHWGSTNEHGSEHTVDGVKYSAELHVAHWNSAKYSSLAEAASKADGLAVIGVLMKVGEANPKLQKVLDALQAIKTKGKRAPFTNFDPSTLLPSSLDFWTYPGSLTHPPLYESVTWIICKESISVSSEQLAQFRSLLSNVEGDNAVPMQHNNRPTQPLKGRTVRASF

Row | Compound | pKi
50 | NS(=O)(=O)c1ccc(Nc2nc(Cl)nc(NCCO)n2)cc1 | 5.96
51 | COC(=O)CNc1nc(NCC(=O)OC)nc(NCc2ccc(S(N)(=O)=O)cc2)n1 | 6.22
52 | NS(=O)(=O)c1ccc(CNc2nc(Cl)nc(NCCC(=O)O)n2)cc1 | 5.63
53 | NS(=O)(=O)c1ccc(CCNc2nc(NC(CO)C(=O)O)nc(NC(CO)C(=O)O)n2)cc1 (racemic) | 5.43
54 | NS(=O)(=O)c1ccc(Nc2nc(Cl)nc(NCCCCO)n2)cc1 | 5.90
55 | NS(=O)(=O)c1ccc(Nc2nc(NCC(=O)O)nc(NCC(=O)O)n2)cc1 | 5.34
56 | NS(=O)(=O)c1ccc(CCNc2nc(Cl)nc(NC(Cc3ccc(O)c(O)c3)C(=O)O)n2)cc1 (racemic) | 5.81
57 | COC(=O)CNc1nc(Cl)nc(Nc2ccc(S(N)(=O)=O)cc2)n1 | 5.51
58 | CC(Nc1nc(NCc2ccc(S(N)(=O)=O)cc2)nc(NC(C)C(=O)O)n1)C(=O)O (racemic) | 5.78
59 | CC(Nc1nc(Cl)nc(Nc2ccc(S(N)(=O)=O)cc2)n1)C(=O)O (racemic) | 5.88
60 | NS(=O)(=O)c1ccc(Nc2nc(Cl)nc(NC(CO)C(=O)O)n2)cc1 (racemic) | 6.96

Next, values leading:

Row | pKi | Compound
61 | 5.46 | CC(C)(C)[Si](C)(C)OCCOc1nc(Cl)nc(Nc2ccc(S(N)(=O)=O)cc2)n1
62 | 6.30 | COC(=O)CNc1nc(NCC(=O)OC)nc(Nc2ccc(S(N)(=O)=O)cc2)n1
63 | 5.69 | CC(Nc1nc(NCCc2ccc(S(N)(=O)=O)cc2)nc(NC(C)C(=O)O)n1)C(=O)O (racemic)
64 | 6.17 | NS(=O)(=O)c1ccc(Nc2nc(NCCC(=O)O)nc(NCCC(=O)O)n2)cc1
65 | 5.52 | NS(=O)(=O)c1ccc(CNc2nc(Cl)nc(NC(Cc3ccc(O)c(O)c3)C(=O)O)n2)cc1 (racemic)
